Experimental data as given in patent publication US10626438B2, “Fluorescent substrates for determining lysine modifying enzyme activity” (The Broad Institute, Inc., priority 2011, dated 2020).

Biological target: HDAC1 (Homo sapiens, UniProt Q13547)
Conditions: for T(½): Broad Substrate A; for mechanism of inhibition (on/off kinetics): progress curves monitored for 4 hours and reversibility by 100-fold dilution

Chain of HDAC1 (Q13547 whole entry): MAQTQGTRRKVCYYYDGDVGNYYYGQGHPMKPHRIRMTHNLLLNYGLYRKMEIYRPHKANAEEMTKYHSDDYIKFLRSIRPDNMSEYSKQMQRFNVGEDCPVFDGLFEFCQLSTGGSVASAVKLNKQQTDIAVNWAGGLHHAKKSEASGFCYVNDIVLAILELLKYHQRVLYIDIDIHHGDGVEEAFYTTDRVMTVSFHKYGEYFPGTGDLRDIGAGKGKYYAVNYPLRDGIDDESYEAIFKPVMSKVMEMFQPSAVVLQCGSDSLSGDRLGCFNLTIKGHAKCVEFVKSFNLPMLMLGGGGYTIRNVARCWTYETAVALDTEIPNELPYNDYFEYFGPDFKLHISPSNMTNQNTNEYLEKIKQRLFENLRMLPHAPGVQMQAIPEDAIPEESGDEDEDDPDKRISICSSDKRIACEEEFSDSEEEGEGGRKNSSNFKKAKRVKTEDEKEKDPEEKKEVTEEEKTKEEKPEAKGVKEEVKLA

CC(=O)Nc1ccc(C(=O)Nc2ccccc2N)cc1 [CI-994]
T(½): 74 min
mechanism of inhibition (on/off kinetics): slow on/slow off inhibitor

O=C(CCCCCCC(=O)Nc1ccccc1)NO [SAHA]
T(½): <4 min
mechanism of inhibition (on/off kinetics): fast on/fast off inhibitor
